T/C data for 26 compounds are collected here from PubChem BioAssay AID330 (DTP/NCI, 2004).

Each structure is given as a SMILES string. Where “and” joins values, the source holds several entries; their conditions need not be identical. Equal entries are not always repeated. Toxic doses and inconclusive results are not listed.

For the test, the system named is P388 leukemia ip, CD2F1 mice, survival T/C. The experiment in a line: NCI In Vivo Anticancer Drug Screen. Data for tumor model P388 Leukemia (intraperitoneal) in CD2F1 (CDF1) mice. The note with it: endpoint: median survival time, higher = longer survival. Summed up:
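Mice carrying the transplanted tumor received test compound or vehicle. Survival was recorded in each group, and the value is the treated-group measurement divided by that of the vehicle-treated control group.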

Where [1] appears, read: dose: 50.0 mg/kg/injection, schedule: Q01DX009 (ip), vehicle: saline with Tween-80.
Setting [2] is: dose: 100.0 mg/kg/injection, schedule: Q01DX009 (ip), vehicle: saline with Tween-80.
The mark [3] stands for this setting: dose: 200.0 mg/kg/injection, schedule: Q01DX009 (ip), vehicle: saline with Tween-80.
The mark [4] stands for this setting: dose: 50.0 mg/kg/injection, schedule: Q01DX005 (ip), vehicle: saline with Tween-80.
Where [5] appears, read: dose: 100.0 mg/kg/injection, schedule: Q01DX005 (ip), vehicle: saline with Tween-80.
The mark [6] stands for this setting: dose: 200.0 mg/kg/injection, schedule: Q01DX005 (ip), vehicle: saline with Tween-80.
[7] abbreviates: dose: 60.0 mg/kg/injection, schedule: Q01DX005 (ip), vehicle: saline with Tween-80.
Setting [8] is: dose: 120.0 mg/kg/injection, schedule: Q01DX005 (ip), vehicle: saline with Tween-80.
Setting [9] is: dose: 240.0 mg/kg/injection, schedule: Q01DX005 (ip), vehicle: saline with Tween-80.
[10] abbreviates: dose: 25.0 mg/kg/injection, schedule: Q01DX009 (ip), vehicle: saline with Tween-80.
[11] abbreviates: dose: 50.0 mg/kg/injection, schedule: Q01DX009 (ip), vehicle: saline.
The mark [12] stands for this setting: dose: 100.0 mg/kg/injection, schedule: Q01DX009 (ip), vehicle: saline.
Setting [13] is: dose: 100.0 mg/kg/injection, schedule: Q04DX002 (ip), vehicle: saline.
The mark [14] stands for this setting: dose: 25.0 mg/kg/injection, schedule: Q01DX009 (ip), vehicle: saline.

As to `OO.OO.[Cr+3].[NH-]CC[N-]CC[NH-]`, the T/C by setting is: under setting [1], 94 % of control; under setting [2], 99 % of control.

For the compound `C/C=C1\C(=O)O[C@@]23C=C[C@H]4C(C(=O)OC)=CO[C@@H](O[C@H]12)[C@H]43`, the T/C (dose: 0.63 mg/kg/injection, schedule: Q01DX009 (ip), vehicle: Klucel (hydroxypropylcellulose) (HPC)) was 100 % of control; the T/C (dose: 0.63 mg/kg/injection, schedule: Q01DX009 (ip), vehicle: saline) was 98 % of control; the T/C (dose: 1.25 mg/kg/injection, schedule: Q01DX009 (ip), vehicle: Klucel (hydroxypropylcellulose) (HPC)) is 100 % of control; the T/C (dose: 1.25 mg/kg/injection, schedule: Q01DX009 (ip), vehicle: saline) was 98 % of control; the T/C (dose: 2.5 mg/kg/injection, schedule: Q01DX009 (ip), vehicle: Klucel (hydroxypropylcellulose) (HPC)) was 98 % of control; the T/C (dose: 2.5 mg/kg/injection, schedule: Q01DX009 (ip), vehicle: saline) was 100 % of control. The T/C (dose: 5.0 mg/kg/injection, schedule: Q01DX009 (ip), vehicle: Klucel (hydroxypropylcellulose) (HPC)) was 100 % of control; the T/C (dose: 5.0 mg/kg/injection, schedule: Q01DX009 (ip), vehicle: saline) was 98 % of control; the T/C (dose: 10.0 mg/kg/injection, schedule: Q01DX009 (ip), vehicle: saline) was 104 % of control; the T/C (dose: 20.0 mg/kg/injection, schedule: Q01DX009 (ip), vehicle: saline) was 113 % of control.

Consider `CC1=C(C(=O)Nc2ccccc2)C(c2ccc(C)cc2)C(C(=O)Nc2ccccc2)=C(C)N1`, for which the T/C reads like this: (dose: 100.0 mg/kg/injection, schedule: Q04DX002 (ip), vehicle: saline with Tween-80) 107 % of control; (dose: 200.0 mg/kg/injection, schedule: Q04DX002 (ip), vehicle: saline with Tween-80) 106 % of control; (dose: 400.0 mg/kg/injection, schedule: Q04DX002 (ip), vehicle: saline with Tween-80) 101 % of control.

As for `CC(=C1N=c2ccccc2=N1)c1[nH]c(O)c2ccccc12`, the T/C is 95 % of control under setting [1], 90 % of control under setting [2] and 96 % of control under setting [3].

On to `Cl/N=C1/C=CC=C/C1=N/Cl`, for which the T/C is 106 % of control (dose: 50.0 mg/kg/injection, schedule: Q01DX005 (ip), vehicle: saline); 104 % of control (dose: 100.0 mg/kg/injection, schedule: Q01DX005 (ip), vehicle: saline); 101 % of control (dose: 200.0 mg/kg/injection, schedule: Q01DX005 (ip), vehicle: saline).

For `COC(=O)c1c(C(=O)OC)c(-c2cccc(Cl)c2)n2c1CCC2`, the T/C runs as follows: (dose: 25.0 mg/kg/injection, schedule: Q01DX005 (ip), vehicle: saline with Tween-80) 98 % of control; under setting [4], 100 % of control; under setting [5], 100 % of control and 93 % of control; under setting [6], 100 % of control.

Regarding `NC1=C(O)C(=O)C(c2cccc(O)c2)O1` (centres undefined), the T/C was 103 % of control under setting [7], 100 % of control under setting [8] and 103 % of control under setting [9].

Regarding `COc1ccc(C=C2C=C(C(C)(C)C)C(=O)C(C(C)(C)C)=C2)cc1`, the T/C was 108 % of control (dose: 50.0 mg/kg/injection, schedule: Q01DX005 (ip), vehicle: distilled water + alcohol); 96 % of control (dose: 100.0 mg/kg/injection, schedule: Q01DX005 (ip), vehicle: distilled water + alcohol); 108 % of control (dose: 200.0 mg/kg/injection, schedule: Q01DX005 (ip), vehicle: distilled water + alcohol).

Turning to `Cc1cc(Cl)ccc1OCC(C)OC(=O)NC(C)C` (centres undefined), the T/C runs as follows: (dose: 50.0 mg/kg/injection, schedule: Q01DX009 (ip), vehicle: Klucel (hydroxypropylcellulose) (HPC)) 106 % of control; (dose: 100.0 mg/kg/injection, schedule: Q01DX009 (ip), vehicle: Klucel (hydroxypropylcellulose) (HPC)) 97 % of control; (dose: 200.0 mg/kg/injection, schedule: Q01DX009 (ip), vehicle: Klucel (hydroxypropylcellulose) (HPC)) 101 % of control.

For `O=C1/C(=C/c2ccccc2)CNC/C1=C\c1ccccc1`, the T/C (dose: 60.0 mg/kg/injection, schedule: Q01DX005 (ip), vehicle: Klucel (hydroxypropylcellulose) (HPC)) was 102 % of control; the T/C (dose: 120.0 mg/kg/injection, schedule: Q01DX005 (ip), vehicle: Klucel (hydroxypropylcellulose) (HPC)) was 111 % of control; the T/C (dose: 240.0 mg/kg/injection, schedule: Q01DX005 (ip), vehicle: Klucel (hydroxypropylcellulose) (HPC)) is 116 % of control.

Take `Cc1nn(-c2ccccc2)nc1C(=O)Nc1ccccc1C(=O)NCC1CC1`: the T/C under setting [7] was 91 % of control; the T/C under setting [8] is 90 % of control and 94 % of control and 96 % of control; the T/C under setting [9] was 103 % of control and 95 % of control and 96 % of control.

As for `CCOC(=O)C1Cc2c(OC)cc(OC)cc2OC1=O` (centres undefined), the T/C is 97 % of control under setting [7], 94 % of control under setting [8] and 92 % of control under setting [9].

As to `CC[PH+](CC)CC.CC[PH+](CC)CC.[Au]`, the T/C is, setting by setting: (dose: 0.15 mg/kg/injection, schedule: Q01DX009 (ip), vehicle: water) 104 % of control and 91 % of control; (dose: 0.31 mg/kg/injection, schedule: Q01DX009 (ip), vehicle: water) 100 % of control and 107 % of control; (dose: 0.62 mg/kg/injection, schedule: Q01DX009 (ip), vehicle: water) 118 % of control and 122 % of control; (dose: 1.25 mg/kg/injection, schedule: Q01DX009 (ip), vehicle: water) 118 % of control.

For `NC(=O)c1cc([N+](=O)[O-])cc([N+](=O)[O-])c1Cl`, for the setting “dose: 6.25 mg/kg/injection, schedule: Q01DX009 (ip), vehicle: Klucel (hydroxypropylcellulose) (HPC)”, the T/C was 102 % of control.

As for `COc1ccc2c(c1)c(CO)c(CO)c[n+]2[O-]`, the T/C runs as follows: under setting [7], 100 % of control; under setting [8], 96 % of control; under setting [9], 102 % of control.

On to `COc1ccc(C(=O)c2ccccc2)cc1OC`, for which the T/C is 100 % of control under setting [10], 100 % of control under setting [1], 98 % of control under setting [2] and 98 % of control under setting [3].

As to `COc1ccc(CC(N)c2ccccc2)cc1` (centres undefined), the T/C by setting is: under setting [11], 96 % of control; under setting [12], 98 % of control.

On to `COC(=O)c1cccc(OC)c1OC`, for which the T/C under setting [2] was 109 % of control; the T/C under setting [3] is 100 % of control; the T/C (dose: 400.0 mg/kg/injection, schedule: Q01DX009 (ip), vehicle: saline with Tween-80) was 109 % of control.

On to `COC(=O)C12C3c4ccccc4C1C2c1ccccc13` (centres undefined), for which the T/C is 99 % of control under setting [13]; 94 % of control (dose: 200.0 mg/kg/injection, schedule: Q04DX002 (ip), vehicle: saline); 96 % of control (dose: 400.0 mg/kg/injection, schedule: Q04DX002 (ip), vehicle: saline).

As to `CC(C)c1ccc(C2C3CCN2CC3)cc1` (centres undefined), the T/C under setting [11] is 91 % of control.

`CCOC(=O)NN(C(=O)OCC)C(C)(C)C(C)=O`: the T/C is, setting by setting: (dose: 100.0 mg/kg/injection, schedule: Q01DX001 (ip), vehicle: saline) 100 % of control; (dose: 200.0 mg/kg/injection, schedule: Q01DX001 (ip), vehicle: saline) 100 % of control and 106 % of control; (dose: 400.0 mg/kg/injection, schedule: Q01DX001 (ip), vehicle: saline) 100 % of control and 108 % of control.

On to `O=C1Nc2ccccc2/C1=N/N(c1ccccc1)c1ccccc1`, for which the T/C under setting [4] was 95 % of control, the T/C under setting [5] was 101 % of control and the T/C under setting [6] is 99 % of control.

Regarding `O=C(O)CC(=O)O.[NH-]CC[NH-].[Pt+2]`, the T/C reads like this: (dose: 6.25 mg/kg/injection, schedule: Q04DX002 (ip), vehicle: saline with Tween-80) 111 % of control; under setting [14], 211 % of control; (dose: 25.0 mg/kg/injection, schedule: Q04DX002 (ip), vehicle: saline with Tween-80) 158 % of control; under setting [11], 94 % of control.

For `CC(/C=N\Nc1ccc(Cl)c(Cl)c1)=N/NC(=O)C[n+]1ccccc1`, the T/C (dose: 25.0 mg/kg/injection, schedule: Q04DX002 (ip), vehicle: saline) is 108 % of control; the T/C (dose: 50.0 mg/kg/injection, schedule: Q04DX002 (ip), vehicle: saline) was 104 % of control; the T/C under setting [13] was 102 % of control and 92 % of control.

As for `COc1cc(C(=O)O)on1`, the T/C is, setting by setting: under setting [14], 103 % of control; under setting [11], 99 % of control; under setting [12], 89 % of control and 96 % of control.

`CCN(CC)c1nc(N(CC)CC)nc(N(CC)CC)n1`: the T/C is, setting by setting: under setting [10], 102 % of control; under setting [1], 104 % of control; under setting [2], 104 % of control; under setting [3], 104 % of control.
